Laboratory results from patent publication US20130165520A1, “Hybrid Molecule Having Mixed Retinoic Acid Receptor Agonism and Histone Deacetylase Inhibitory Properties” (priority 2010, published 2013).

Legend:
MOLT-4 = MOLT-4 (Leukemia); 48 h
NCI-H322M = NCI-H322M (Non-Small cell lung cancer); 48 h
OVCAR-5 [1] = details: 48 h
SK-MEL-2 = SK-MEL-2 (Melanoma); 48 h
PC-3 = PC-3 (Prostate); 48 h
[2] = tested on: RAR target genes in MCF-7 cell line; test: RT-qPCR analysis of RAR target genes; type: cell-based
Text: The agonist activity of 3 through its effects on RAR target genes was subsequently analyzed (FIG. 3).

786-0 = test: cells; details: Homo sapiens, 786-0, 48 h
OVCAR-3 [3] = details: 48 h
BT-549 = test: cells; details: Homo sapiens, BT-549, 48 h
RXF393 = test: cells; details: Homo sapiens, RXF 393, 48 h
SF-295 = test: cells; details: Homo sapiens, SF-295, 48 h
OVCAR-8 = details: 48 h
HOP-92 = test: cells; details: Homo sapiens, HOP-92, 48 h
CAKI-1 = test: cells; details: Homo sapiens, CAKI-1, 48 h
SNB-19 = test: cells; details: Homo sapiens, SNB-19, 48 h
OVCAR-4 = details: 48 h
OVCAR-3 [4] = test: cells; details: Homo sapiens, OVCAR-3, 48 h
SK-OV-3 = details: 48 h
CCRF-CEM = CCRF-CEM (Leukemia); 48 h
RPMI-8226 = RPMI-8226 (Leukemia); 48 h
OVCAR-5 [5] = test: cells; details: Homo sapiens, OVCAR-5, 48 h

**Q.** What does the source list for `CC1(C)CCC(C)(C)c2cc(-c3ccc4cc(C(=O)NO)ccc4c3)ccc21` [hybrid 3]?
**A.** TGI (MOLT-4): 1.46 µM; TGI (NCI-H322M): 3.5 µM; TGI (OVCAR-5 [1]): 19.5 µM; TGI (SK-MEL-2): 6.31 µM; TGI (PC-3): 4.25 µM; induction of RAR target genes (RT-qPCR) [2]: clear induction of RARB2 and DHRS3; GI50 (786-0): 1.1 µM; CC50 (786-0; read-out: LC50): 5.12 µM; TGI (OVCAR-3 [3]): 1.88 µM; GI50 (BT-549): 1.42 µM; CC50 (BT-549; read-out: LC50): 19.7 µM; GI50 (RXF393): 1.26 µM; CC50 (RXF393; read-out: LC50): 6.27 µM; GI50 (SF-295): 0.385 µM; CC50 (SF-295; read-out: LC50): 6.11 µM; TGI (OVCAR-8): 1.77 µM; GI50 (HOP-92): 1.93 µM; CC50 (HOP-92; read-out: LC50): 27.2 µM; GI50 (CAKI-1): 0.302 µM; CC50 (CAKI-1; read-out: LC50): 4.31 µM; GI50 (SNB-19): 1.09 µM; CC50 (SNB-19; read-out: LC50): 5.09 µM; TGI (OVCAR-4): 5.82 µM; GI50 (OVCAR-3 [4]): 0.603 µM; CC50 (OVCAR-3 [4]; read-out: LC50): 4.48 µM; TGI (SK-OV-3): 11.7 µM; TGI (CCRF-CEM): 1.95 µM; TGI (RPMI-8226): 4.39 µM; GI50 (OVCAR-5 [5]): 4.12 µM; CC50 (OVCAR-5 [5]; read-out: LC50): 46.1 µM
